Data as given in US9861640B2, “Medicament for treatment of Alzheimer's disease” (KEMPHYS LTD., priority 2013, dated 2018).

Columns and labels:
[1] = system: RXRs; conditions: cited from earlier work
[2] = system: Aβ40 and Aβ42; assay: Aβ40 and Aβ42 sandwich ELISA of TBS-soluble and TBS-insoluble brain fractions; type: in vivo, mouse; conditions: Am80 alone 3 mg/kg/d or 6 mg/kg/d for 17 days, oral
Procedure: (§1) APP23 mice begin forming amyloid deposits when they are 6 months old, but memory deficits in the MWM test appear quite early (before 3 months of age). Here, we used 8.5-month-old male APP23 mice and their WT littermates (C57BL/6J). We used stratified random sampling to divide mice (four to six per cage) into four groups to equalize the mean body weight of the study groups: mice given 0.5 mg/kg/d Am80, those given 5 mg/kg/d HX630, those given the mixture of 0.5 mg/kg/d Am80 and 5 mg/kg/d HX630, and those given the vehicle. […]
The TBS-soluble (TBS-extractable) fraction and the TBS-insoluble (but guanidine HC1-extractable) fraction from the cerebral hemispheres or hippocampus were prepared as described previously. The amounts of Aβ40 and Aβ42 in each fraction were determined by using sandwich ELISAs (294-64701 and 290-62601 (Wako), respectively), according to the manufacturer's instructions. The amounts of tumor necrosis factor-α (TNF-α) and IL-4 in the TBS-soluble fractions of cerebral cortex and hippocampus were analyzed by means of sandwich ELISAs KMC3012 (Invitrogen) and ELM-IL-4-001 (RayBiotech, Inc., Norcros, Ga., USA), respectively, according to the manufacturer's instructions. Protein concentrations were determined with the Bradford Protein Assay Reagent (Thermo Fisher Scientific Inc., Rockford, Ill., USA), with BSA as the standard.

[3] = system: Cd36 mRNA; assay: RT-PCR of Cd36 mRNA in brains of APP23 mice; type: in vivo, mouse; conditions: Am80 0.5 and/or HX630 5 mg/kg/d, day 18
Procedure: as §1, with “vehicle. Am80 and HX630 were suspended in 0.5% (w/v) carboxymethylcellulose solution and were orally administered to mice at 0.5 mg/kg (Am80) or 5 mg/kg (HX630) for 17 consecutive days (once daily at 18:00). Control animals received the same volume of 0.5% (w/v) carboxymethylcellulose solution orally, without the other compounds.” for “vehicle.”
For semi-quantitative RT-PCR analysis, PCRs were carried out with Quick Taq HS DyeMix (DTM-101; Toyobo Co. Ltd., Osaka, Japan). […] Semi-quantitative PCR consisted of an initial denaturation cycle at 94° C. for 2 min, followed by 40 cycles for Cd36, 35 cycles for Mme, 30 cycles for Ide, and 26 cycles for β-actin. […] Densitometric quantification was done with the Image Gauge software program (Fuji Photo Film Co., Tokyo, Japan). […]

[4] = system: CD36; assay: Immunoblot of CD36 in brains of APP23 mice; type: in vivo, mouse; conditions: Am80 0.5 and/or HX630 5 mg/kg/d, day 18, whole-cell extracts
Procedure: (§2) APP23 mice begin forming amyloid deposits when they are 6 months old, but memory deficits in the MWM test appear quite early (before 3 months of age). Here, we used 8.5-month-old male APP23 mice and their WT littermates (C57BL/6J). We used stratified random sampling to divide mice (four to six per cage) into four groups to equalize the mean body weight of the study groups: mice given 0.5 mg/kg/d Am80, those given 5 mg/kg/d HX630, those given the mixture of 0.5 mg/kg/d Am80 and 5 mg/kg/d HX630, and those given the vehicle. Am80 and HX630 were suspended in 0.5% (w/v) carboxymethylcellulose solution and were orally administered to mice at 0.5 mg/kg (Am80) or 5 mg/kg (HX630) for 17 consecutive days (once daily at 18:00). Control animals received the same volume of 0.5% (w/v) carboxymethylcellulose solution orally, without the other compounds. We set the 0.5 mg/kg/d dose for Am80 on the basis that this had been found effective in other in vivo studies, such as those by Kawahara et al. and Ishido and Shudo [37]. Higher doses of Am80 (3 mg/kg/d and 6 mg/kg/d) were also orally administered to mice for 17 consecutive days. Animals were weighed once a week. Mice were subjected to behavioral testing on days 15-18 of the first oral administration of the compounds (at 19:00-23:00). On days 15-17 (not day 18), animals received the compounds at 24:00, after behavioral testing. […]

[5] = system: IDE; assay: Immunoblot of IDE in brains of APP23 mice; type: in vivo, mouse; conditions: day 18, vs vehicle-treated APP23 mice, P<0.05
Procedure: as §2

SMILES	binding affinity for RXRs (and RARγ) [1]	Aβ levels in APP23 mice, higher dose [2]	Cd36 mRNA level [3]	CD36 protein level in brain (immunoblot) [4]	IDE protein level in the membrane-bound fraction [5]
CC1(C)CCC(C)(C)c2cc(NC(=O)c3ccc(C(=O)O)cc3)ccc21 [Am80, 4-{(5,6,7,8-tetrahydro-5,5,8,8-tetramethyl-2-naphthalenyl)carbamoyl}benzoic acid]	little or no binding affinity	neither reduced Aβ levels			
CN1c2ccccc2N=C(c2ccc(C(=O)O)cc2)c2cc3c(cc21)C(C)(C)CCC3(C)C [HX630, 4-[5H-2,3-(2,5dimethyl-2,5-hexano)-5-methyldibenzo[b,e]-diazepin-11-yl]benzoic acid]			increased	increased	increased significantly
